Results from PMC6792352, “Limited Chemical Structural Diversity Found to Modulate Thyroid Hormone Receptor in the Tox21 Chemical Library” (Environmental Health Perspectives, 2019).

Assay: in vitro
Conditions: rat, gh3-tre-luc cells

Structure (SMILES)	CC50 at 24 h (AC50 (uM) modified / 1000)	other results
c1ccc(C[n+]2cccc3ccccc32)cc1 [1-Benzylquinolinium chloride]	> 90 µM	
CC1(C)C(=O)N(Cl)C(=O)N1Br [1-Bromo-3-chloro-5,5-dimethylhydantoin]	> 90 µM	
COc1cccc(Br)c1 [1-Bromo-3-methoxybenzene]	> 90 µM	
ClCCCCBr [1-Bromo-4-chlorobutane]		CC50 at 24 h (AC50 (uM) modified / 1000, Tox21_110001=Tox21_202866, viability, 1 nM T3 present, 24 h): > 90 µM
CCc1ccc(Br)cc1 [1-Bromo-4-ethylbenzene]	> 90 µM	
Fc1ccc(Br)cc1 [1-Bromo-4-fluorobenzene]	> 90 µM	
COc1ccc(Br)c(C)c1 [1-Bromo-4-methoxy-2-methylbenzene]	> 90 µM	
CCCCCCCCCCCCBr [1-Bromododecane]		CC50 at 24 h (AC50 (uM) modified / 1000, Tox21_110001=Tox21_302046, viability, 1 nM T3 present, 24 h): > 90 µM
FC(F)(F)C(F)(F)C(F)(F)C(F)(F)C(F)(F)C(F)(F)C(F)(F)C(F)(F)Br [1-Bromoheptadecafluorooctane]	> 50 µM	
CCCCCCCCCCCCCCCCCBr [1-Bromoheptadecane]	> 20 µM	
CCCCCCCCCCCCCCCCBr [1-Bromohexadecane]	> 30 µM	
CCCCCCBr [1-Bromohexane]		CC50 at 24 h (AC50 (uM) modified / 1000, Tox21_110001=Tox21_202719, viability, 1 nM T3 present, 24 h): > 100 µM
CCCCCCCCBr [1-Bromooctane]	> 90 µM	
CCCCCCCCCCCCCCCBr [1-Bromopentadecane]	> 50 µM	
CCCCCBr [1-Bromopentane]	> 100 µM	
CCCBr [1-Bromopropane]		CC50 at 24 h (AC50 (uM) modified / 1000, Tox21_110001=Tox21_200619, viability, 1 nM T3 present, 24 h): > 90 µM
CCCCCCCCCCCCCCBr [1-Bromotetradecane]	> 100 µM	
CCCCCCCCCCCCCBr [1-Bromotridecane]	> 90 µM	
CCCCCCCCCCCBr [1-Bromoundecane]	> 50 µM	
CCCCS [1-Butanethiol]	> 90 µM	
CCCCO [1-Butanol]	> 90 µM	

Structure (SMILES)	CC50 at 24 h (AC50 (uM) modified / 1000)	other results
CCCCOC(=O)C(C)OC(=O)CCC (centres unmarked) [1-Butoxy-1-oxopropan-2-yl butanoate]	> 90 µM	
CCCCOCC(C)O (centres unmarked) [1-Butoxy-2-propanol]	> 90 µM	
CCCC[N+]1(C)CCCCC1 [1-Butyl-1-methylpiperidinium tetrafluoroborate]	> 90 µM	
CCCC[N+]1(C)CCCC1 [1-Butyl-1-methylpyrrolidinium hexafluorophosphate]	> 90 µM	
CCCCn1cc[n+](C)c1C [1-Butyl-2,3-dimethylimidazolium chloride]	> 90 µM	
CCCC[n+]1ccccc1C [1-Butyl-2-methylpyridinium bromide]	> 90 µM	
CCCC[n+]1cccc(C)c1 [1-Butyl-3-methylpyridinium bromide]	> 90 µM	
CCCC[n+]1ccccc1 [1-Butylpyridinium hexafluorophosphate]	> 90 µM	
CCC(Cl)[N+](=O)[O-] (centres unmarked) [1-Chloro-1-nitropropane]	> 100 µM	
Fc1cccc(Cl)c1CCl [1-Chloro-2-(chloromethyl)-3-fluorobenzene]	> 90 µM	
ClCCBr [1-Chloro-2-bromoethane]		CC50 at 24 h (AC50 (uM) modified / 1000, Tox21_110001=Tox21_201726, viability, 1 nM T3 present, 24 h): > 90 µM
Cc1c(Cl)cccc1[N+](=O)[O-] [1-Chloro-2-methyl-3-nitrobenzene]	> 90 µM	
O=[N+]([O-])c1cc(C(F)(F)F)ccc1Cl [1-Chloro-2-nitro-4-(trifluoromethyl)benzene]	> 90 µM	
CC(O)CCl (centres unmarked) [1-Chloro-2-propanol, technical grade (~75% 1-chloro-2-propanol; ~25% 2-chloro-1-propanol)]		CC50 at 24 h (AC50 (uM) modified / 1000, Tox21_110001=Tox21_200998, viability, 1 nM T3 present, 24 h): > 90 µM
O=[N+]([O-])c1cccc(Cl)c1 [1-Chloro-3-nitrobenzene]	> 90 µM	
FC(F)(F)c1ccc(Cl)cc1 [1-Chloro-4-(trifluoromethyl)benzene]	> 90 µM	
O=[N+]([O-])c1ccc(Cl)cc1 [1-Chloro-4-nitrobenzene]		CC50 at 24 h (AC50 (uM) modified / 1000, Tox21_110001=Tox21_202291, viability, 1 nM T3 present, 24 h): > 90 µM
CCCCCl [1-Chlorobutane]		CC50 at 24 h (AC50 (uM) modified / 1000, Tox21_110001=Tox21_111072, viability, 1 nM T3 present, 24 h): > 50 µM; CC50 at 24 h (AC50 (uM) modified / 1000, Tox21_110001=Tox21_200865, viability, 1 nM T3 present, 24 h): > 90 µM
CCCCCCCCCCCl [1-Chlorodecane]	> 90 µM	
CCCCCCCCCCCCCl [1-Chlorododecane]		CC50 at 24 h (AC50 (uM) modified / 1000, Tox21_110001=Tox21_201790, viability, 1 nM T3 present, 24 h): > 90 µM
CCCCCCCCCCCCCCCCCl [1-Chlorohexadecane]	> 20 µM	

Structure (SMILES)	CC50 at 24 h (AC50 (uM) modified / 1000)	other results
Clc1cccc2ccccc12 [1-Chloronaphthalene]		CC50 at 24 h (AC50 (uM) modified / 1000, Tox21_110001=Tox21_200823, viability, 1 nM T3 present, 24 h): > 90 µM
CCCCCCCCCCl [1-Chlorononane]	> 90 µM	
CCCCCCCCCl [1-Chlorooctane]		CC50 at 24 h (AC50 (uM) modified / 1000, Tox21_110001=Tox21_201715, viability, 1 nM T3 present, 24 h): > 90 µM
CC(C)(C)C(=O)CCl [1-Chloropinacolone]	> 90 µM	
CCCCCCCCCCCCCCCl [1-Chlorotetradecane]		CC50 at 24 h (AC50 (uM) modified / 1000, Tox21_110001=Tox21_200456, viability, 1 nM T3 present, 24 h): > 90 µM
CC(O)C1CCCCC1 (centres unmarked) [1-Cyclohexylethanol]	> 90 µM	
O=C1CCCN1C1CCCCC1 [1-Cyclohexylpyrrolidin-2-one]	> 90 µM	
CCCCCCCCCCN [1-Decanamine]	> 90 µM	
CCCCCCCCCCO [1-Decanol]	> 90 µM	
C=CCCCCCCCC [1-Decene]	> 90 µM	
CCCCCCCCCCCCCCCCCCCCCCO [1-Docosanol]	> 50 µM	
CCCCCCCCCCCCS [1-Dodecanethiol]	> 90 µM	
CCCCCCCCCCCCO [1-Dodecanol]	> 90 µM	
C=CCCCCCCCCCC [1-Dodecene]	> 90 µM	
CCCCCCCCCCCCN1CCCC1=O [1-Dodecyl-2-pyrrolidinone]	49.6 µM	
C=CN1CCCCCC1=O [1-Ethenylazepan-2-one]	> 90 µM	
CCOCC(C)O (centres unmarked) [1-Ethoxy-2-propanol]	> 90 µM	
CCOc1ccc([N+](=O)[O-])cc1 [1-Ethoxy-4-nitrobenzene]	39.1 µM	
CC[N+]1(C)CCCC1 [1-Ethyl-1-methylpyrrolidinium hexafluorophosphate]	> 90 µM	
CCN(N=O)C(N)=O [1-Ethyl-1-nitrosourea]		CC50 at 24 h (AC50 (uM) modified / 1000, Tox21_110001=Tox21_202151, viability, 1 nM T3 present, 24 h): > 90 µM; CC50 at 24 h (AC50 (uM) modified / 1000, Tox21_110001=Tox21_302749, viability, 1 nM T3 present, 24 h): > 60 µM
CCn1cc[n+](C)c1C [1-Ethyl-2,3-dimethylimidazolium bromide]	> 90 µM	

Structure (SMILES)	CC50 at 24 h (AC50 (uM) modified / 1000)	other results
CCN1CCCC1=O [1-Ethyl-2-pyrrolidinone]	> 90 µM	
CCn1cc[n+](C)c1 [1-Ethyl-3-methylimidazolium thiocyanate]	> 90 µM	
C#CC1(O)CCCCC1 [1-Ethynylcyclohexanol]		CC50 at 24 h (AC50 (uM) modified / 1000, Tox21_110001=Tox21_302106, viability, 1 nM T3 present, 24 h): > 90 µM
c1coc(Cn2cccc2)c1 [1-Furfurylpyrrole]	> 90 µM	
CCCCCCCO [1-Heptanol]	> 90 µM	
CCCCCCCCCCCCCCCCO [1-Hexadecanol]	> 90 µM	
C=CCCCCCCCCCCCCCC [1-Hexadecene]	> 20 µM	
CCCCCCO [1-Hexanol]	> 90 µM	
C=CCCCC [1-Hexene]	> 100 µM	
CCCCCCn1cc[n+](C)c1 [1-Hexyl-3-methylimidazolium trifluoromethanesulfonate]	> 90 µM	
CCCCCC[n+]1ccccc1 [1-Hexylpyridinium bromide]	> 90 µM	
On1nnc2ccccc21 [1-Hydroxybenzotriazole]	> 90 µM	
Oc1ccc2ccc3cccc4ccc1c2c34 [1-Hydroxypyrene]	> 90 µM	
O=[N+]([O-])c1cccc(I)c1 [1-Iodo-3-nitrobenzene]	> 90 µM	
CCCCCCCCCCCCI [1-Iodododecane]	> 90 µM	
CCCCCCI [1-Iodohexane]		CC50 at 24 h (AC50 (uM) modified / 1000, Tox21_110001=Tox21_202862, viability, 1 nM T3 present, 24 h): > 90 µM
CCCCCCCCCI [1-Iodononane]	> 90 µM	
COc1ccccc1[N+](=O)[O-] [1-Methoxy-2-nitrobenzene]	> 90 µM	
